Data from ChEMBL document CHEMBL3822390, “Synthesis, characterization and anti-cancer activity of a peptide nucleolipid bioconjugate” (2016).

Experiments:
Type in all cases: functional
[1] = Cytotoxicity against human TK10 cells assessed as cell growth at 10 uM after 48 hrs by SRB assay; conditions: TK-10, 48 h, read-out: Activity
[2] = Cytotoxicity against human UO31 cells assessed as cell growth at 10 uM after 48 hrs by SRB assay; conditions: UO-31, 48 h, read-out: Activity
[3] = Cytotoxicity against human MOLT4 cells assessed as cell growth at 10 uM after 48 hrs by SRB assay; conditions: MOLT-4, 48 h, read-out: Activity
[4] = Cytotoxicity against human HOP92 cells assessed as cell growth at 10 uM after 48 hrs by SRB assay; conditions: HOP-92, 48 h, read-out: Activity
[5] = test system: A549; test: Cytotoxicity against human A549 cells assessed as cell growth at 10 uM after 48 hrs by SRB assay; conditions: A549, 48 h, read-out: Activity
[6] = test system: NCI-H23; test: Cytotoxicity against human NCI-H23 cells assessed as cell growth at 10 uM after 48 hrs by SRB assay; conditions: NCI-H23, 48 h, read-out: Activity
[7] = Cytotoxicity against human HCC2998 cells assessed as cell growth at 10 uM after 48 hrs by SRB assay; conditions: HCC 2998, 48 h, read-out: Activity
[8] = test system: SK-MEL-2; test: Cytotoxicity against human SK-MEL-2 cells assessed as cell growth at 10 uM after 48 hrs by SRB assay; conditions: SK-MEL-2, 48 h, read-out: Activity
[9] = test system: SN12C; test: Cytotoxicity against human SN12C cells assessed as cell growth at 10 uM after 48 hrs by SRB assay; conditions: read-out: Activity
[10] = Cytotoxicity against human OVCAR5 cells assessed as cell growth at 10 uM after 48 hrs by SRB assay; conditions: OVCAR-5, 48 h, read-out: Activity
[11] = test system: HT-29; test: Cytotoxicity against human HT-29 cells assessed as cell growth at 10 uM after 48 hrs by SRB assay; conditions: HT-29, 48 h, read-out: Activity
[12] = test system: SR; test: Cytotoxicity against human SR cells assessed as cell growth at 10 uM after 48 hrs by SRB assay; conditions: read-out: Activity
[13] = test system: SK-MEL-5; test: Cytotoxicity against human SK-MEL-5 cells assessed as cell growth at 10 uM after 48 hrs by SRB assay; conditions: SK-MEL-5, 48 h, read-out: Activity
[14] = Cytotoxicity against human HOP62 cells assessed as cell growth at 10 uM after 48 hrs by SRB assay; conditions: HOP-62, 48 h, read-out: Activity
[15] = test system: CCRF-CEM; test: Cytotoxicity against human CCRF-CEM cells assessed as cell growth at 10 uM after 48 hrs by SRB assay; conditions: read-out: Activity
[16] = Cytotoxicity against human SNB19 cells assessed as cell growth at 10 uM after 48 hrs by SRB assay; conditions: SNB-19, 48 h, read-out: Activity
[17] = Cytotoxicity against human UACC257 cells assessed as cell growth at 10 uM after 48 hrs by SRB assay; conditions: UACC-257, 48 h, read-out: Activity
[18] = test system: NCI-H522; test: Cytotoxicity against human NCI-H522 cells assessed as cell growth at 7.25 uM after 48 hrs by SRB assay; conditions: NCI-H522, 48 h, read-out: Activity
[19] = test system: MDA-MB-435; test: Cytotoxicity against human MDA-MB-435 cells assessed as cell growth at 7.25 uM after 48 hrs by SRB assay; conditions: MDA-MB-435, 48 h, read-out: Activity
[20] = test system: KM12; test: Cytotoxicity against human KM12 cells assessed as cell growth at 7.25 uM after 48 hrs by SRB assay; conditions: KM12, 48 h, read-out: Activity
[21] = Cytotoxicity against human SKOV3 cells assessed as cell growth at 7.25 uM after 48 hrs by SRB assay; conditions: SK-OV-3, 48 h, read-out: Activity
[22] = Cytotoxicity against human SNB19 cells assessed as cell growth at 7.25 uM after 48 hrs by SRB assay; conditions: SNB-19, 48 h, read-out: Activity
[23] = Cytotoxicity against human SF295 cells assessed as cell growth at 7.25 uM after 48 hrs by SRB assay; conditions: SF-295, 48 h, read-out: Activity
[24] = test system: SN12C; test: Cytotoxicity against human SN12C cells assessed as cell growth at 7.25 uM after 48 hrs by SRB assay; conditions: read-out: Activity
[25] = Cytotoxicity against human SF539 cells assessed as cell growth at 7.25 uM after 48 hrs by SRB assay; conditions: SF-539, 48 h, read-out: Activity
[26] = test system: T47D; test: Cytotoxicity against human T47D cells assessed as cell growth at 7.25 uM after 48 hrs by SRB assay; conditions: read-out: Activity
[27] = Cytotoxicity against human UACC62 cells assessed as cell growth at 7.25 uM after 48 hrs by SRB assay; conditions: UACC-62, 48 h, read-out: Activity
[28] = Cytotoxicity against human Hs 578T cells assessed as cell growth at 7.25 uM after 48 hrs by SRB assay; conditions: read-out: Activity
[29] = test system: A498; test: Cytotoxicity against human A498 cells assessed as cell growth at 7.25 uM after 48 hrs by SRB assay; conditions: A498, 48 h, read-out: Activity
[30] = test system: NCI-H522; test: Cytotoxicity against human NCI-H522 cells assessed as cell mortality at 7.25 uM after 48 hrs by SRB assay; conditions: NCI-H522, 48 h
[31] = Cytotoxicity against human HL-60(TB) cells assessed as cell growth at 7.25 uM after 48 hrs by SRB assay; conditions: HL-60, 48 h, read-out: Activity
[32] = test system: SR; test: Cytotoxicity against human SR cells assessed as cell growth at 7.25 uM after 48 hrs by SRB assay; conditions: read-out: Activity
[33] = Cytotoxicity against human OVCAR8 cells assessed as cell growth at 2.13 uM after 48 hrs by SRB assay; conditions: OVCAR-8, 48 h, read-out: Activity
[34] = test system: NCI-H226; test: Cytotoxicity against human NCI-H226 cells assessed as cell mortality at 2.13 uM after 48 hrs by SRB assay; conditions: NCI-H226, 48 h
[35] = test system: NCI-H322M; test: Cytotoxicity against human NCI-H322M cells assessed as cell growth at 2.13 uM after 48 hrs by SRB assay; conditions: read-out: Activity
[36] = test system: K562; test: Cytotoxicity against human K562 cells assessed as cell growth at 2.13 uM after 48 hrs by SRB assay; conditions: K562, 48 h, read-out: Activity
[37] = Cytotoxicity against human OVCAR5 cells assessed as cell growth at 2.13 uM after 48 hrs by SRB assay; conditions: OVCAR-5, 48 h, read-out: Activity
[38] = test system: MDA-MB-231; test: Cytotoxicity against human MDA-MB-231 cells assessed as cell growth at 2.13 uM after 48 hrs by SRB assay; conditions: MDA-MB-231, 48 h, read-out: Activity
[39] = Cytotoxicity against human IGROV1 cells assessed as cell growth at 2.13 uM after 48 hrs by SRB assay; conditions: IGROV-1, 48 h, read-out: Activity
[40] = test system: NCI-H23; test: Cytotoxicity against human NCI-H23 cells assessed as cell growth at 2.13 uM after 48 hrs by SRB assay; conditions: NCI-H23, 48 h, read-out: Activity

**Q.** For `CC(C)C[C@H](NC(=O)[C@H](CCCCN)NC(=O)[C@H](C)NC(=O)[C@H](CC(C)C)NC(=O)[C@H](CCCCN)NC(=O)[C@H](CCCCN)NC(=O)[C@H](C)NC(=O)[C@H](CC(C)C)NC(=O)[C@H](CCCCN)NC(=O)[C@H](C)NC(=O)[C@H](CC(C)C)NC(=O)[C@H](CCCCN)NC(=O)[C@@H](N)CC(=O)O)C(=O)N[C@@H](C)C(=O)N[C@@H](CCCCN)C(=O)N[C@@H](C)C(=O)N[C@@H](CCCCN)C(N)=O`, which growth at 10 µM [1] is on record?
**A.** 94.4%

**Q.** What about the growth at 10 µM [2] of the same molecule?
**A.** 98%

**Q.** And the growth at 10 µM [3]?
**A.** 86.4%

**Q.** What about the growth at 10 µM [4] of the same molecule?
**A.** 86.1%

**Q.** What about the growth at 10 µM [5] of the same molecule?
**A.** 81%

**Q.** And the growth at 10 µM [6]?
**A.** 103%

**Q.** What about the growth at 10 µM [7] of the same molecule?
**A.** 100%

**Q.** And the growth at 10 µM [8]?
**A.** 90.7%

**Q.** And the growth at 10 µM [9]?
**A.** 99%

**Q.** And the growth at 10 µM [10]?
**A.** 98.6%

**Q.** What about the growth at 10 µM [11] of the same molecule?
**A.** 94.8%

**Q.** And the growth at 10 µM [12]?
**A.** 85%

**Q.** And the growth at 10 µM [13]?
**A.** 101%

**Q.** And the growth at 10 µM [14]?
**A.** 104%

**Q.** And the growth at 10 µM [15]?
**A.** 108%

**Q.** What about the growth at 10 µM [16] of the same molecule?
**A.** 106%

**Q.** And the growth at 10 µM [17]?
**A.** 71.8%

**Q.** Which results are given for `CCCCCCCCCCCCCCCC(=O)NCCCC[C@H](NC(=O)[C@H](C)NC(=O)[C@H](CCCCN)NC(=O)[C@H](C)NC(=O)[C@H](CC(C)C)NC(=O)[C@H](CCCCN)NC(=O)[C@H](C)NC(=O)[C@H](CC(C)C)NC(=O)[C@H](CCCCN)NC(=O)[C@H](CCCCN)NC(=O)[C@H](C)NC(=O)[C@H](CC(C)C)NC(=O)[C@H](CCCCN)NC(=O)[C@H](C)NC(=O)[C@H](CC(C)C)NC(=O)[C@H](CCCCN)NC(=O)[C@@H](N)CC(=O)O)C(N)=O`?
**A.** growth at 7.25 µM [18]: 83.5%; growth at 7.25 µM [19]: 113%; growth at 7.25 µM [20]: 110%; growth at 7.25 µM [21]: 99.8%; growth at 7.25 µM [22]: 103%; growth at 7.25 µM [23]: 110%; growth at 7.25 µM [24]: 104%; growth at 7.25 µM [25]: 102%; growth at 7.25 µM [26]: 99%; growth at 7.25 µM [27]: 102%; growth at 7.25 µM [28]: 101%; growth at 7.25 µM [29]: 111%; mortality at 7.25 µM [30]: 16%; growth at 7.25 µM [31]: 93.1%; growth at 7.25 µM [32]: 91.9%

**Q.** For `CCCCCCCCCCCCCCCCNCCO[C@H]1C[C@H](n2cc(C)c(=O)[nH]c2=O)O[C@@H]1C(=O)NCCCC[C@H](NC(=O)[C@H](C)NC(=O)[C@H](CCCCN)NC(=O)[C@H](C)NC(=O)[C@H](CC(C)C)NC(=O)[C@H](CCCCN)NC(=O)[C@H](C)NC(=O)[C@H](CC(C)C)NC(=O)[C@H](CCCCN)NC(=O)[C@H](CCCCN)NC(=O)[C@H](C)NC(=O)[C@H](CC(C)C)NC(=O)[C@H](CCCCN)NC(=O)[C@H](C)NC(=O)[C@H](CC(C)C)NC(=O)[C@H](CCCCN)NC(=O)[C@@H](N)CC(=O)O)C(N)=O`, which growth at 2.13 µM [33] is on record?
**A.** 96.8%

**Q.** And the mortality at 2.13 µM [34]?
**A.** 4%

**Q.** What about the growth at 2.13 µM [35] of the same molecule?
**A.** 110%

**Q.** And the growth at 2.13 µM [36]?
**A.** 106%

**Q.** What about the growth at 2.13 µM [37] of the same molecule?
**A.** 105%

**Q.** And the growth at 2.13 µM [38]?
**A.** 101%

**Q.** And the growth at 2.13 µM [39]?
**A.** 107%

**Q.** What about the growth at 2.13 µM [40] of the same molecule?
**A.** 106%
